{"source": "patent US11622964B2", "about": "“Method for destroying cellular mechanical homeostasis and promoting regeneration and repair of tissues and organs, and use thereof” (INSTITUTE OF ZOOLOGY, CHINESE ACADEMY OF SCIENCES, priority 2018, dated 2023)", "key": {"[1]": {"tested_on": "mouse embryonic fibroblasts (MEFs)", "assay": "TGF-β1-induced transformation of mouse embryonic fibroblasts into myofibroblasts", "type": "cell-based", "conditions": "S-Bleb-OB 20 μM; for stretched state / fibrous morphology of MEFs: compared with DMSO; for TGF-β1-induced myofibroblast activation: scheme as Example 9-1", "description": "In this example, cell models for in vitro fibrosis are respectively built to activate mouse hepatic stellate Cells (mHSCs, FIG. 13(B)), mouse embryonic fibroblasts (MEFs FIG. 13(C)), mouse adult liver, lung, and heart-derived primary mesenchymal cells (priMCs, FIG. 13(D)), and human hepatic stellate cells (hLX-2, FIG. 13(E)) into myofibroblasts through the induction of TGF-β1. The specific experimental procedure is as shown in FIG. 9A: a medium containing 10% serum is used for the initial cell culture; after 24 hours the medium is replaced with low serum medium (or pre-starvation treatment for 16 hours) while adding 3 ng/ml TGF-β1 with DMSO or Bleb (20 μM); after 7 days the expression of myofibroblast activation marker protein (Acta2), collagen (Col1a1, Col1a2, Col3a1, and Col1a2), and matrix metalloproteinases and inhibitors (collagenases: MmP8, and MmP13; gelatinases: MmP2, and MmP9; a metalloproteinase inhibitor: Timp1/2/3) are identified."}, "adult hepatocytes": {"tested_on": "adult hepatocytes", "assay": "In vitro amplification of adult hepatocytes", "type": "cell-based, human", "conditions": "for number of cells: after 6 days of culture", "experimental": "Resuscitation and Culture of Adult Hepatocytes: adult hepatocytes ([…] […] human, Bioreclamation IVT) are taken out from the liquid nitrogen tank, quickly placing in a 37° C. water bath, after melting the cells are added to 5 ml of 37° C. pre-warmed hepatocyte inoculation medium (In VitroGRO CP Medium), then inoculating at 9×10^4/well in 24-well plate after counting, 2-4 hours after hepatocyte adherence, the hepatocyte inoculation medium is sucked and discarded, then respectively adding control medium for hepatocyte culture, 10 μm small molecule medium, and 20 μm small molecule medium; changing the medium every 2 days. The number of cells is estimated from the photograph on day 2. After 4 days, the 20 μm small molecule medium group is changed to culture the cells in 10 μm small molecule medium. After co-culturing for 6 days the cells are counted. A portion of the cells are taken for RNA extraction so as to detect the expression of human hepatocyte-specific genes. Passage of Adult Hepatocytes: 4.7×10^4 hepatocytes cultured in the above control group, and 8×10^4 hepatocytes cultured in 10 μm small molecule medium are respectively re-inoculated into 24-well plate coated with rat tail collagen, changing the medium every two days and culturing for 6 days, photographs are taken to record the growth of the cells. Induction of CYP1A2 in Adult Hepatocytes Amplified by Small Molecule Medium: 3×10^5 hepatocytes are inoculated in 24-well plate coated with rat tail collagen, after culturing in 10 μm small molecule medium for 24 hours, the medium is replaced with 10 μm small molecule medium containing 50 μm omeprazole, and in the control group the cells are cultured in 10 μm small molecule medium containing DMSO; 48 hours later, the cells are collected to detect the expression of the CYP1A2 gene."}}}
{"molecule": "Cc1ccc2c(c1)C(=O)[C@@]1(O)CCN(c3ccccc3)C1=N2", "note": "[R-Bleb, (R)-(+)-blebbistatin]", "values": [{"measurement": "stretched state / fibrous morphology of MEFs", "setting": "[1]", "value": "does not affect the fibrous morphology"}, {"measurement": "TGF-β1-induced myofibroblast activation", "setting": "[1]", "value": "no inhibitory effect"}]}
{"molecule": "Cc1ccc2c(c1)C(=O)[C@]1(OC(=O)c3ccccc3)CCN(c3ccccc3)C1=N2", "note": "[S-Bleb-OB, (−)-blebbistatin o-benzoate]", "values": [{"measurement": "stretched state / fibrous morphology of MEFs", "setting": "[1]", "value": "may destroy the stretched state"}, {"measurement": "TGF-β1-induced myofibroblast activation", "setting": "[1]", "value": "capable of inhibiting"}]}
{"molecule": "COc1ccc2[nH]c([S+]([O-])Cc3ncc(C)c(OC)c3C)nc2c1", "note": "(stereo not drawn) [omeprazole]", "values": [{"measurement": "expression of CYP1A2 gene after induction", "setting": "adult hepatocytes; 50 μm omeprazole, 48 hours, subcultured adult hepatocytes in 10 μm small molecule medium", "value": "increase"}]}
{"molecule": "(−)-blebbistatin", "values": [{"measurement": "amplification effect on adult hepatocytes (cell number day 6 / day 2)", "setting": "adult hepatocytes", "value": "significant amplification effect"}, {"measurement": "expression of human hepatocyte specific genes ALBUMIN, AFP, CYP1A2, CYP3A4", "setting": "adult hepatocytes", "value": "still express"}, {"measurement": "subculture of human hepatocytes", "setting": "adult hepatocytes", "value": "can subculture human hepatocytes"}, {"measurement": "number of cells", "setting": "adult hepatocytes; 10 μm group", "value": "6.47×10^4 (SD=1.24)"}, {"measurement": "number of cells", "setting": "adult hepatocytes; # group (20 μm for 4 days, then 10 μm for 2 days)", "value": "9.47×10^4 (SD=0.98)"}, {"measurement": "expression of proliferating cell nuclear antigen (PCNA) gene", "setting": "adult hepatocytes; vs control group", "value": "significantly higher"}]}
{"molecule": "(−)-blebbistatin o-benzoate [S-Bleb-OB]", "values": [{"measurement": "TGF-β1-induced myofibroblast activation", "setting": "[1]", "value": "have an inhibitory effect"}]}
